Where two headings read alike, the source gives them in different places.
Key:
[1] = test system: HCV genotype 1a (H77 strain) replicon in HUH-7 cells; experiment: HCV replicon luciferase reporter assay, genotype 1a; assay type: cell-based; details: Hepatitis C virus, Huh-7, 72 h, 3 days incubation, read-out: LE_1a (EC50, range)
Method in brief: (§1)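 Replicon inhibition for both genotypes was measured as Renilla luciferase signal (EnduRen, 7.5 μM final, 2 h) after 3-day, 37° C exposure of replicon-bearing HUH-7 cells in 4% FCS DMEM, 0.5% DMSO. The 1b construct carries S1179I; the 1a H77 construct carries P1496L and S2204I. Twenty-point, 3-fold dilutions were fitted four-parametrically for EC50, and CC50 was taken from multiplexed Cell Titer-Blue.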

[2] = test system: HCV genotype 1b (Con1) replicon in HUH-7 cells; experiment: HCV replicon luciferase reporter assay, genotype 1b; assay type: cell-based; details: Hepatitis C virus, Huh-7, 72 h, 3 days incubation, read-out: LE_1b (EC50, range)
Method in brief: as §1

[3] = HCV genotype 1a replicon luciferase assay, range class
[4] = HCV genotype 1b replicon luciferase assay, range class
[5] = GETYPE1A, HCV genotype 1a replicon luciferase
[6] = GETYPE1B, HCV genotype 1b replicon luciferase
[7] = HCV genotype 1a replicon luciferase
[8] = HCV genotype 1b replicon luciferase

Compound | EC50 [1, 7] | EC50 [2, 8] | further results
CC(C)n1nc(O[C@@H]2C[C@H]3C(=O)N[C@]4(C(=O)NS(=O)(=O)C5CC5)C[C@H]4/C=C\CC[C@H](C)C[C@@H](C)[C@H](NC(=O)OC(C)(C)C(C)(F)F)C(=O)N3C2)c2ccccc2c1=O [Compound 1017, 3,3-difluoro-2-methylbutan-2-yl((2R,6S,7R,9S,13aS,14aR,16aS,Z)-14a-((cyclopropylsulfonyl)carbamoyl)-2-((3-isopropyl-4-oxo-3,4-dihydrophthalazin-1-yl)oxy)-7,9-dimethyl-5,16-dioxo-1,2,3,5,6,7,8,9,10,11,13a,14,14a,15,16,16a-hexadecahydrocyclopropa[e]pyrrolo[1,2-a][1,4]diazacyclopentadecin-6-yl)carbamate] |  |  | EC50 [1, 3]: > 87.4 nM; EC50 [2, 4]: > 87.4 nM
CCOc1cnc(O[C@@H]2C[C@H]3C(=O)N[C@]4(C(=O)NS(=O)(=O)C5CC5)C[C@H]4/C=C\CC[C@@H](C)C[C@@H](C)[C@H](NC(=O)OC(C)(C)C(F)(F)F)C(=O)N3C2)c2cc(F)ccc12 [Compound 4062] |  |  | EC50 [1, 5]: < 5.46 nM; EC50 [2, 6]: < 5.46 nM
CC[C@@H]1C[C@H](C)CC/C=C\[C@@H]2C[C@@]2(C(=O)NS(=O)(=O)C2(C)CC2)NC(=O)[C@@H]2C[C@@H](Oc3nccc4cc(OC)c(Cl)cc34)CN2C(=O)[C@H]1NC(=O)OC(C)(C)C(F)(F)F [Compound 3222, 1,1,1-trifluoro-2-methylpropan-2-yl((2R,6S,7R,9R,13aS,14aR,16aS,Z)-2-((7-chloro-6-methoxyisoquinolin-1-yl)oxy)-7-ethyl-9-methyl-14a-(((1-methylcyclopropyl)sulfonyl)carbamoyl)-5,16-dioxo-1,2,3,5,6,7,8,9,10,11,13a,14,14a,15,16,16a-hexadecahydrocyclopropa[e]pyrrolo[1,2-a][1,4]diazacyclopentadecin-6-yl)carbamate] | 1.01 to 5 nM | 1.01 to 5 nM | 
COc1cc2c3c(nc(O[C@@H]4C[C@H]5C(=O)N[C@]6(C(=O)NS(=O)(=O)C7(C)CC7)C[C@H]6/C=C\CC[C@@H](C)C[C@@H](C)[C@H](NC(=O)OC(C)(C)C(F)(F)F)C(=O)N5C4)c2cc1F)OCCC3 [Compound 1196] |  |  | EC50 [1, 5]: 0.51 to 1 nM; EC50 [2, 6]: 0.51 to 1 nM
COc1ccc2c(O[C@@H]3C[C@H]4C(=O)N[C@]5(C(=O)NS(=O)(=O)C6(C)CC6)C[C@H]5/C=C\CC[C@@H](C)C[C@@H](C)[C@H](NC(=O)OC(C)(C)C(F)(F)F)C(=O)N4C3)nc(-c3ccc(OC(C)C)cc3)c(OC)c2c1 [Compound 5348, 1,1,1-trifluoro-2-methylpropan-2-yl((2R,6S,7R,9R,13aS,14aR,16aS,Z)-2-((3-(4-isopropoxyphenyl)-4,6-dimethoxyisoquinolin-1-yl)oxy)-7,9-dimethyl-14a-(((1-methylcyclopropyl)sulfonyl)carbamoyl)-5,16-dioxo-1,2,3,5,6,7,8,9,10,11,13a,14,14a,15,16,16a-hexadecahydrocyclopropa[e]pyrrolo[1,2-a][1,4]diazacyclopentadecin-6-yl)carbamate] | < 5.46 nM | < 5.46 nM | 
[2H]C([2H])([2H])C(OC(=O)N[C@@H]1C(=O)N2C[C@H](Oc3nn(CC)c(=O)c4ccccc34)C[C@H]2C(=O)N[C@]2(C(=O)NS(=O)(=O)C3(C)CC3)C[C@H]2/C=C\CC[C@@H](C)C[C@H]1C)(C([2H])([2H])[2H])C(F)(F)F [Compound 5055] | 4.82 to 103 nM | < 5.46 nM | 
COc1ccc2c(O[C@@H]3C[C@H]4C(=O)N[C@]5(C(=O)NS(=O)(=O)C6(C)CC6)C[C@H]5/C=C\CC[C@H](C)C[C@@H](C)[C@H](NC(=O)O[C@H](C)C(F)(F)F)C(=O)N4C3)nc(N(C)C)cc2c1 [Compound 3112, (R)-1,1,1-trifluoropropan-2-yl ((2R,6S,7R,9S,13aS,14aR,16aS,Z)-2-((3-(dimethylamino)-6-methoxyisoquinolin-1-yl)oxy)-7,9-dimethyl-14a-(((1-methylcyclopropyl)sulfonyl)carbamoyl)-5,16-dioxo-1,2,3,5,6,7,8,9,10,11,13a,14,14a,15,16,16a-hexadecahydrocyclopropa[e]pyrrolo[1,2-a][1,4]diazacyclopentadecin-6-yl)carbamate] |  |  | EC50 [1, 3]: 4.82 to 103 nM; EC50 [2, 4]: 4.82 to 103 nM
C[C@@H]1CC/C=C\[C@@H]2C[C@@]2(C(=O)NS(=O)(=O)C2(C)CC2)NC(=O)[C@@H]2C[C@@H](Oc3nccc4c5c(ccc34)OCCO5)CN2C(=O)[C@@H](NC(=O)O[C@H](C)C(F)(F)F)[C@H](C)C1 [Compound 5253, (R)-1,1,1-trifluoropropan-2-yl ((2R,6S,7R,9R,13aS,14aR,16aS,Z)-2-((2,3-dihydro-[1,4]dioxino[2,3-f]isoquinolin-7-yl)oxy)-7,9-dimethyl-14a-(((1-methylcyclopropyl)sulfonyl)carbamoyl)-5,16-dioxo-1,2,3,5,6,7,8,9,10,11,13a,14,14a,15,16,16a-hexadecahydrocyclopropa[e]pyrrolo[1,2-a][1,4]diazacyclopentadecin-6-yl)carbamate] | < 5.46 nM | < 5.46 nM | 
COc1ccc2c(O[C@@H]3C[C@H]4C(=O)N[C@]5(C(=O)NS(=O)(=O)C6(C)CC6)C[C@H]5/C=C\CC[C@@H](C)C[C@@H](C)[C@H](NC(=O)O[C@@H]5C[C@@H]6C[C@@H]6C5)C(=O)N4C3)nc(N(C)C)cc2c1 [Compound 3111, (1R,3r,5S)-bicyclo[3.1.0]hexan-3-yl((2R,6S,7R,9R,13aS,14aR,16aS,Z)-2-((3-(dimethylamino)-6-methoxyisoquinolin-1-yl)oxy)-7,9-dimethyl-14a-(((1-methylcyclopropyl)sulfonyl)carbamoyl)-5,16-dioxo-1,2,3,5,6,7,8,9,10,11,13a,14,14a,15,16,16a-hexadecahydrocyclopropa[e]pyrrolo[1,2-a][1,4]diazacyclopentadecin-6-yl)carbamate] |  |  | EC50 [1, 3]: < 5.46 nM; EC50 [2, 4]: 4.82 to 103 nM
COc1cc2c(OC)cnc(O[C@@H]3C[C@H]4C(=O)N[C@]5(C(=O)NS(=O)(=O)C6(CF)CC6)C[C@H]5/C=C\CC[C@@H](C)C[C@@H](C)[C@H](NC(=O)c5ccc(F)cc5F)C(=O)N4C3)c2cc1F [Compound 4118, (2R,6S,7R,9R,13aS,14aR,16aS,Z)-6-(2,4-difluorobenzamido)-2-(7-fluoro-4,6-dimethoxyisoquinolin-1-yloxy)-N-(1-(fluoromethyl)cyclopropylsulfonyl)-7,9-dimethyl-5,16-dioxo-1,2,3,5,6,7,8,9,10,11,13a,14,14a,15,16,16a-hexadecahydrocyclopropa[e]pyrrolo[1,2-a][1,4]diazacyclopentadecine-14a-carboxamide] | < 5.46 nM | < 5.46 nM | 
CC[C@@H]1C[C@H](C)CC/C=C\[C@@H]2C[C@@]2(C(=O)NS(=O)(=O)C2(C)CC2)NC(=O)[C@@H]2C[C@@H](Oc3ncc(OC4CC4)c4ccccc34)CN2C(=O)[C@H]1NC(=O)OC(C)(C)C(F)(F)F [Compound 4223] |  |  | EC50 [1, 5]: < 5.46 nM; EC50 [2, 6]: < 5.46 nM
CC[C@@H]1C[C@H](C)CC/C=C\[C@@H]2C[C@@]2(C(=O)NS(=O)(=O)C2(CF)CC2)NC(=O)[C@@H]2C[C@@H](Oc3nc4c(c5ccccc35)CCCO4)CN2C(=O)[C@H]1NC(=O)OC(C)(C)C(F)(F)F [Compound 6068, 1,1,1-trifluoro-2-methylpropan-2-yl((2R,6S,7R,9R,13aS,14aR,16aS,Z)-2-((2,3-dihydro-1H-pyrano[2,3-c]isoquinolin-6-yl)oxy)-7-ethyl-14a-(((1-(fluoromethyl)cyclopropyl)sulfonyl)carbamoyl)-9-methyl-5,16-dioxo-1,2,3,5,6,7,8,9,10,11,13a,14,14a,15,16,16a-hexadecahydrocyclopropa[e]pyrrolo[1,2-a][1,4]diazacyclopentadecin-6-yl)carbamate] | 1.01 to 5 nM | 0.51 to 1 nM | 
COc1ccc2c(O[C@@H]3C[C@H]4C(=O)N[C@]5(C(=O)NS(=O)(=O)C6CC6)C[C@H]5/C=C\CC[C@H](C)C[C@@H](C)[C@H](NC(=O)O[C@@H]5C[C@@H]6C[C@@H]6C5)C(=O)N4C3)nc(-c3ccccc3)cc2c1 [Compound 5189, (1R,3r,5S)-bicyclo[3.1.0]hexan-3-yl((2R,6S,7R,9S,13aS,14aR,16aS,Z)-14a-((cyclopropylsulfonyl)carbamoyl)-2-((6-methoxy-3-phenylisoquinolin-1-yl)oxy)-7,9-dimethyl-5,16-dioxo-1,2,3,5,6,7,8,9,10,11,13a,14,14a,15,16,16a-hexadecahydrocyclopropa[e]pyrrolo[1,2-a][1,4]diazacyclopentadecin-6-yl)carbamate] | < 5.46 nM | < 5.46 nM | 
COc1ccc2c(O[C@@H]3C[C@H]4C(=O)N[C@]5(C(=O)NS(=O)(=O)C6(F)CC6)C[C@H]5/C=C\CC[C@@H](C)C[C@@H](C)[C@H](NC(=O)OCC(C)C)C(=O)N4C3)nccc2c1 [Compound 4018] | < 5.46 nM | < 5.46 nM | 
C[C@@H]1CC/C=C\[C@@H]2C[C@@]2(C(=O)NS(=O)(=O)C2CC2)NC(=O)[C@@H]2C[C@@H](Oc3nccc4c5c(ccc34)OC(F)(F)O5)CN2C(=O)[C@@H](NC(=O)O[C@H](C)C(F)(F)F)[C@H](C)C1 [Compound 5270, (R)-1,1,1-trifluoropropan-2-yl ((2R,6S,7R,9R,13aS,14aR,16aS,Z)-14a-((cyclopropylsulfonyl)carbamoyl)-2((2,2-difluoro-[1,3]dioxolo[4,5-f]isoquinolin-6-yl)oxy)-7,9-dimethyl-5,16-dioxo-1,2,3,5,6,7,8,9,10,11,13a,14,14a,15,16,16a-hexadecahydrocyclopropa[e]pyrrolo[1,2-a][1,4]diazacyclopentadecin-6-yl)carbamate] | < 5.46 nM | < 5.46 nM | 
